What all share (format): in vivo
The subject of experiment [1] is Balb/c male mice kept under water immersion stress. Briefly: Water immersion sleep disturbed test (forced swimming under weight load). To be noted: once a day for two days during water immersion, weight 8% of body weight. As to the method: The first thing to do is measure the swimming time in a water immersion sleep disturbed test. Mice that have been kept in an environment such as water immersion where they are unable to have a good sleep or take a rest position so they cannot have a physical or mental rest are forced to swim under a weight load and the time it takes for them to have their nose sunk in the water for a period of ten seconds or longer is measured to confirm the degree of their fatigue. Since this is an animal model for physical or mental fatigue, an extension of the swimming time as achieved by administering it with the test substance means the verification of resistance to fatigue, as exemplified by relief of physical and/or mental fatigue, maintenance of physical vigor in the tired model (increase in body strength), or improvement of stamina. A sesamin/episesamin mixture (sesamin:episesamin=1:1 in weight ratio) was used as a test sample. Effectiveness against fatigue was evaluated by the following partial modification of the method of Tanaka et al. (Neuroscience, Let. 352, 159-162, 2003). The test animals Balb/c male mice (8-week old) were divided into five groups, each consisting of 12 animals and having the same average body weight. Four of those five groups were water immersion groups, which were kept in breeding cages, not on paper chips but in tap water (23° C.) supplied to a depth of 7 mm, thereby disturbing sleep of the mice. […] After two days, each mouse was fitted with a weight at the tail which corresponded to 8% of its body weight, and was allowed to swim in a water tank of 18 cm^φ that was filled with water to a depth of 30 cm; the time it took for each mouse to have its nose sunk in water for a period of at least 10 seconds was measured. The mice in the groups kept under water immersion stress could swim for a shorter period than the mice in the normally kept group and the degree by which the shortening of the swimming time could be controlled in the sesamin administered groups was measured to evaluate the effectiveness of sesamin against fatigue. […]

The test system is the same in experiment [2]. The experiment is described as follows: Measuring fatigue-causing substances (ketone bodies) in the blood of mice under water immersion stress. To be noted: 50 mg/kg oral once a day for three days during water immersion; versus control group under water immersion stress (olive oil). The text has this:
The third thing to do is measure the amount of fatigue-causing substances in the blood. This involves administering the test substance to check to see if it has an action for controlling an increase in the blood concentration of fatigue-causing substances under a physical or mental stress. Although no substances have been identified to be causative of fatigue, one class of candidates may be ketone bodies (collectively referring to acetoacetate, 3-hydroxybutyrate, and acetone). Ketone bodies are known to be metabolites that are produced when free fatty acids […] from the fat tissue on account of lowered glucose availability undergo β-oxidation. If the production of ketone bodies is enhanced beyond their utilization in the extrahepatic tissues, ketone bodies accumulate in the blood, leading to ketosis. Actoacetate and 3-hydroxybutyrate are moderately strong acids, so if ketone bodies accumulate in amounts exceeding the buffering action of the living body, the blood becomes acidic, causing a condition known as acidosis which, in turn, produces a feeling of weariness (Takanori Yamamoto, Igaku no ayumi (Progress in Medicine), Vol. 204, No. 5:325-329, 2003). […]
After three days, blood was drawn from each mouse and the ketone bodies in the serum were measured by the enzyme method with a biochemical automatic analyzer (Model 7070 of Hitachi, Ltd.)

The subject of experiment [3] is Sprague Dawley male rats under exercise stress. Briefly: Forced exercise test, sesamin given after treadmill exercise stress (recovery from fatigue). To be noted: 180 mg/kg oral in olive oil after 3-hr treadmill exercise stress; versus control group under exercise stress. The protocol:
The second thing to do is measure the motor activity in a forced exercise test. Rats administered with the test substance are forced to have exercise on a treadmill and, thereafter, the motor activity of the animal in the dark period is measured. Since this is an animal model for fatigue from exercise (physical fatigue), an increase in the motor activity as achieved by administering it with the test substance means the verification of resistance to fatigue.
The test sample used in Example 2 was the same sesamin as in Example 1.
Sprague Dawley male rats (6-week old) were acclimatized in a test environment for a week and the animals that had shown normal growth were subjected to the test. One day before the start of the test, the rats were divided into five groups each consisting of eight animals. On the day of the test, all animals were starved from the morning and one group of rats was assigned as a resting group that was not to be subjected to exercise stress. […] Thereafter, the animals were transferred to an automatograph (Supermex manufactured by MUROMACHI KIKAI CO., LTD.) and their motor activity in the dark period was measured.

For experiment [4] the test system is unchanged. Briefly: Forced exercise test, sesamin-mixed feed for a week before treadmill exercise stress (prevention of fatigue). To be noted: versus exercise fatigue control group. The protocol: The second thing to do is measure the motor activity in a forced exercise test. Rats administered with the test substance are forced to have exercise on a treadmill and, thereafter, the motor activity of the animal in the dark period is measured. Since this is an animal model for fatigue from exercise (physical fatigue), an increase in the motor activity as achieved by administering it with the test substance means the verification of resistance to fatigue. The test sample used in Example 3 was the same sesamin as in Example 1. Sprague Dawley male rats (10-week old) were acclimatized in a test environment for a week and the animals that had shown normal growth were subjected to the test. The rats were divided into three groups each consisting of eight animals. Then, AI[…] was mixed with sesamin to give final concentrations of 0, 0.02, and 0.1% (w/w) to prepare feeds and the rats were let to ingest the respective feeds ad libitum for a week. Thereafter, all animals were given a 3-hr exercise stress by means of a treadmill-type forced walking apparatus (MK-680 manufactured by MUROMACHI KIKAI CO., LTD.) After the end of exercise stress application, the animals were transferred to an automatograph (Supermex manufactured by MUROMACHI KIKAI CO., LTD.) and their motor activity in the dark period was measured.

Here are results for 1 compound from patent US9609884B2, “Anti-fatigue agent” (Suntory Holdings Limited, priority 2007, dated 2017).

Each structure is given as a SMILES string.

Consider `c1cc2c(cc1[C@H]1OC[C@H]3[C@@H]1CO[C@@H]3c1ccc3c(c1)OCO3)OCO2` [sesamin], for which the figures for the “swimming time (control group kept under water immersion stress taken as 100%)” value in experiment [1] (12.5 mg/kg oral), in experiment [1] (50 mg/kg oral) and in experiment [1] (200 mg/kg oral) were 150%, 300% and 133%, respectively. The “concentration of ketone bodies in the serum” value in experiment [2] is listed as “significant control of the increase in the concentration of ketone bodies”. Moreover, the “motor activity in the dark period” value in experiment [3] is recorded as “an increase in the motor activity was confirmed”. The “motor (physical) activity in the dark period” value is given as “almost the same physical activity” in experiment [4] (mixed feed containing 0.02% (w/w) sesamin ad libitum for a week before 3-hr exercise stress) and “enhanced physical activity” in experiment [4] (mixed feed containing 0.1% (w/w) sesamin (about 80 mg/kg) ad libitum for a week before 3-hr exercise stress).
